“Also recorded” adds a separate entry of the source. Read-outs that look alike come from different tables or passages of the source.
What was measured:
[1] = biological target: bovine carbonic anhydrase II (b-CA II) (Bos taurus, UniProt P00921); experiment: Carbonic anhydrase (b-CA II) inhibition assay, p-nitrophenyl acetate hydrolysis; assay type: biochemical; details: for selectivity for b-CA II over 15-LOX: b-CA II vs 15-LOX
Description: Carbonic anhydrase (b-CA II) inhibition activity was determined according to the previously reported protocol. IC50 values were calculated through GraphPad PRISM 5.0 Software Inc., San Diego, CA, USA.
This method is based on the spectrophotometric determination of hydrolytic product of substrate p-nitrophenyl acetate substrate. Assay volume was kept at 100 µL, comprised of 60 µL of Tris-sulfate buffer (50 mM, 0.1 mM ZnCl2 at pH 7.6), 10 µL of test compound with concentration of 50 µM and 10 µL (50 U) of b-CA II. The reaction mixture was incubated at 25 °C for 10 min and […]
Reaction was initiated by addition of 20 µL of p-nitrophenyl acetate (6mM) as substrate and incubated for further 30 min. […]
test compounds. All experiments were performed in triplicate and dose response curves were […]
(1 picture or pasted object on this page, not shown here)

15-lipoxygenase (15-LOX) = biological target: T1, 15-lipoxygenase (15-LOX) (Glycine max, UniProt P08170); experiment: Lipoxygenase (15-LOX) inhibition assay, linoleic acid substrate, absorbance 234 nm; assay type: biochemical; details: for IC50: mean of three experiments, read-out: 15-LOX IC50 ± SEM; for inhibition at 100 µM: final concentration of 100 μM
T1 sequence (P08170 1-839): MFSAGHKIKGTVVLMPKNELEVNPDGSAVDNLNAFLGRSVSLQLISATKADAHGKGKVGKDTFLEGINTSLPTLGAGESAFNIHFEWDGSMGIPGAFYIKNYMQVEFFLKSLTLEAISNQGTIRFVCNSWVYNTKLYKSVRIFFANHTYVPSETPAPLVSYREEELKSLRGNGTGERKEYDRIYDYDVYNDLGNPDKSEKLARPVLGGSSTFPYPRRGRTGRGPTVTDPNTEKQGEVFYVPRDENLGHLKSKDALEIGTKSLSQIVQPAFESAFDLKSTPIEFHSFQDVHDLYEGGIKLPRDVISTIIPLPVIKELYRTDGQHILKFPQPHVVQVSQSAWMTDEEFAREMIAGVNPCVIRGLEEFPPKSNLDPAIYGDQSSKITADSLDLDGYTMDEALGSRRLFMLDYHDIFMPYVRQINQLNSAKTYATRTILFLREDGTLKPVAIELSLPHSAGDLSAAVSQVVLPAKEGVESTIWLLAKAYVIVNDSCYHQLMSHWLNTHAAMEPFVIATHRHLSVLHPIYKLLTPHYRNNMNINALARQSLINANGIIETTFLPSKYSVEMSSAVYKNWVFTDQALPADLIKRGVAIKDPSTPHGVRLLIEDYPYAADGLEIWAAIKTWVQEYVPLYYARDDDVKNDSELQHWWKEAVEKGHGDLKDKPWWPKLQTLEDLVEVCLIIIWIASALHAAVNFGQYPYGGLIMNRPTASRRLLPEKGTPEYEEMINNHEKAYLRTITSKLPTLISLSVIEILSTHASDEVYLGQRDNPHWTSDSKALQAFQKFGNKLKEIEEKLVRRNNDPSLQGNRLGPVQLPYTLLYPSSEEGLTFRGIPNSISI
Description: The lipoxygenase activity was determined with the some modifications to the reported method. The compounds were first screened at 0.1 mM. Assay buffer was made containing 100 mM KH2PO4 and the pH was adjusted at 8.0. Initially, 145 µL of assay buffer was added in each well of a 96-well plate, followed by the addition of 10 µL of 15-LOX enzyme (42.5 units/well). Then, 20 µL of test compound was added in each well and incubated for 10 min at 25 °C. Absorbance was measured at 234 nm by multimode micro-plate reader, FLUOstar Omega, Germany as a pre-read value. Further reaction was carried out by adding of 25 µL of substrate linoleic acid and incubation for 10 min at 25 °C. After incubation, absorbance was calculated again at 234 nm as after read. […] The IC50 values for all experiments were determined using a nonlinear curve fitting tool and all experiments were carried out in triplicate format in GraphPad PRISM 5.0 (GraphPad, San Diego, CA, USA).

[2] = mean of three experiments, read-out: b-CA II IC50 ± SEM

bovine carbonic anhydrase II (b-CA II), sequence (P00921 whole entry): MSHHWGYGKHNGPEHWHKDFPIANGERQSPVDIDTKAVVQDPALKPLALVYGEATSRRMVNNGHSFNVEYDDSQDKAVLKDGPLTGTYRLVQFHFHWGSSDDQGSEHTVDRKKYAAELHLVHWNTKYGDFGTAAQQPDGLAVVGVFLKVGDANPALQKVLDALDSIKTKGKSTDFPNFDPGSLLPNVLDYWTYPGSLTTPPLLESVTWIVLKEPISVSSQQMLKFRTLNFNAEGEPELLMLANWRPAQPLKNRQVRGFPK

Row | Structure (SMILES) | IC50 [1, 2] [nM] | melting point [°C] | IC50 (15-lipoxygenase (15-LOX)) [nM] | selectivity for b-CA II over 15-LOX [1] | inhibition at 100 µM (15-lipoxygenase (15-LOX)) [%] | IC50 [1] [nM] | fold higher potential towards b-CA II compared with standard inhibitor acetazolamide ([1]; vs acetazolamide)
1 | COc1cc2cc(OC)c(OC)c(/C=N/NC(N)=S)c2cc1OC [3a] | 310 ± 10 | 240 | 370 ± 20 | – | – | – | –
2 | C#CCN(C)c1ccc(/C=N/NC(N)=S)cc1 [3b] | 4970 ± 160 | 245 | – | selective towards b-CA II; also recorded: selective inhibitors of CA II | < 50 | – | –
3 | NC(=S)N/N=C/c1ccccc1F [3c] | 2020 ± 120 | – | 160 ± 10 | – | – | – | –
4 | NC(=S)N/N=C/c1cc([N+](=O)[O-])ccc1Cl [3d] | 280 ± 10 | 248 | – | selective towards b-CA II; also recorded: selective inhibitors of CA II | < 50 | – | –
5 | COc1ccc(/C=N/NC(N)=S)cc1O [3e] | 380 ± 20 | – | 1340 ± 140 | – | – | – | –
6 | NC(=S)N/N=C/c1ccc(Br)s1 [3f] | 10200 ± 210 | 243 | 820 ± 190 | – | – | – | –
7 | NC(=S)N/N=C/c1c(F)cccc1Cl [3g] | 840 ± 50 | – | – | selective towards b-CA II; also recorded: selective inhibitors of CA II | < 50 | – | –
8 | NC(=S)N/N=C/c1cccc(F)c1 [3h] | – | – | 140 ± 10 | – | – | 130 ± 10 | ≈ 7 fold

Source: PMC9785969, “Synthesis, Biological Evaluation, and Molecular Dynamics of Carbothioamides Derivatives as Carbonic Anhydrase II and 15-Lipoxygenase Inhibitors” (Molecules, 2022)
